In the NIST ThermoML archive (doi:10.1016/j.jct.2006.09.008):
± gives the expanded uncertainty stated by the source.

Assay: molar heat capacity at constant pressure; mn = molality of the nth substance listed, in mol/kg
Details: 350 kPa, Liquid

O=[N+]([O-])[O-].O=[N+]([O-])[O-].[Mn+2] [manganese nitrate] + O
molar heat capacity at constant pressure [J/K/mol]
Details	m1 = 0.0132	m1 = 0.0248	m1 = 0.0503	m1 = 0.0825	m1 = 0.0836	m1 = 0.1542	m1 = 0.3085	m1 = 0.5132
338.15 K	75.36 ± 0.3	75.33 ± 0.3	75.26 ± 0.3	75.19 ± 0.3	75.19 ± 0.3	75.04 ± 0.3	74.78 ± 0.3	74.52 ± 0.3
343.15 K	75.42 ± 0.3	75.39 ± 0.3	75.32 ± 0.3	75.25 ± 0.3	75.25 ± 0.3	75.1 ± 0.3	74.84 ± 0.3	74.59 ± 0.3
348.15 K	75.48 ± 0.3	75.45 ± 0.3	75.38 ± 0.3	75.31 ± 0.3	75.31 ± 0.3	75.16 ± 0.3	74.91 ± 0.3	74.66 ± 0.3
353.15 K	75.55 ± 0.3	75.52 ± 0.3	75.46 ± 0.3	75.38 ± 0.3	75.38 ± 0.3	75.23 ± 0.3	74.98 ± 0.3	74.73 ± 0.3
358.15 K	75.63 ± 0.3	75.6 ± 0.3	75.53 ± 0.3	75.46 ± 0.3	75.46 ± 0.3	75.31 ± 0.3	75.06 ± 0.3	74.81 ± 0.3
363.15 K	75.72 ± 0.3	75.68 ± 0.3	75.62 ± 0.3	75.54 ± 0.3	75.54 ± 0.3	75.39 ± 0.3	75.14 ± 0.3	74.89 ± 0.3
368.15 K	75.81 ± 0.3	75.78 ± 0.3	75.71 ± 0.3	75.63 ± 0.3	75.63 ± 0.3	75.48 ± 0.3	75.22 ± 0.3	74.97 ± 0.3
373.15 K	75.91 ± 0.3	75.88 ± 0.3	75.81 ± 0.3	75.73 ± 0.3	75.73 ± 0.3	75.57 ± 0.3	75.31 ± 0.3	75.06 ± 0.3
378.15 K	76.02 ± 0.3	75.99 ± 0.3	75.91 ± 0.3	75.83 ± 0.3	75.83 ± 0.3	75.67 ± 0.3	75.41 ± 0.3	75.15 ± 0.3
383.15 K	76.14 ± 0.31	76.1 ± 0.3	76.03 ± 0.3	75.94 ± 0.3	75.94 ± 0.3	75.78 ± 0.3	75.51 ± 0.3	75.25 ± 0.3
388.15 K	76.27 ± 0.31	76.23 ± 0.31	76.15 ± 0.31	76.07 ± 0.3	76.07 ± 0.3	75.89 ± 0.3	75.62 ± 0.3	75.36 ± 0.3
393.15 K	76.41 ± 0.31	76.37 ± 0.31	76.29 ± 0.31	76.2 ± 0.3	76.2 ± 0.3	76.02 ± 0.3	75.74 ± 0.3	75.47 ± 0.3
